Test results taken from ChEMBL document CHEMBL1201862, “PubChem BioAssay data set” (2004).
The source made the active and inactive calls.

Legend:
[1] = target: Protein-tyrosine kinase 2-beta (Homo sapiens, UniProt Q14289);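 note: potency of inhibitors of PYK2 kinase phosphorylation of poly-GT substrate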
[2] = non-specific cell cytotoxicity, dose response, cytotoxicity control for PAX8 inhibitor project, plate reader, dry powder samples (AID 743021); assay type: functional, cell-based
[3] = ADAM10 inhibitors, peptide cleavage, dose response, biochemical, QFRET (AID 743254);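 note: ADAM10 enzyme with the DM2 quenched FRET peptide as substrate; EDANS fluorescence gain as the protease cuts the substrate; inhibitor potency against ADAM10 proteolytic activity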
Ephrin type-A receptor 4 = Ephrin type-A receptor 4 (Mus musculus, UniProt Q03137); assay: inhibitors of EphA4 binding to KYL peptide, primary screen, biochemical, colorimetric, mouse EphA4 (AID 689); assay type: functional
[4] = THP-1 cell cytotoxicity, dose response, cytotoxicity control for Vif-APOBEC3G degradation inhibitor project, THP-1 cells (AID 1117359); assay type: functional; conditions: Human immunodeficiency virus 1, THP-1
[5] = target: T1, Oxysterols receptor LXR-beta (Homo sapiens, UniProt P55055); assay: LXR agonists, Gal4 luciferase reporter, dose response, counter-screen for ssDAF-12 agonist project, cell-based, luminescence, HEK293, S. stercoralis campaign (AID 720737); assay type: functional; conditions: read-out: IC50 (the source's name)
T1 sequence (P55055 whole entry): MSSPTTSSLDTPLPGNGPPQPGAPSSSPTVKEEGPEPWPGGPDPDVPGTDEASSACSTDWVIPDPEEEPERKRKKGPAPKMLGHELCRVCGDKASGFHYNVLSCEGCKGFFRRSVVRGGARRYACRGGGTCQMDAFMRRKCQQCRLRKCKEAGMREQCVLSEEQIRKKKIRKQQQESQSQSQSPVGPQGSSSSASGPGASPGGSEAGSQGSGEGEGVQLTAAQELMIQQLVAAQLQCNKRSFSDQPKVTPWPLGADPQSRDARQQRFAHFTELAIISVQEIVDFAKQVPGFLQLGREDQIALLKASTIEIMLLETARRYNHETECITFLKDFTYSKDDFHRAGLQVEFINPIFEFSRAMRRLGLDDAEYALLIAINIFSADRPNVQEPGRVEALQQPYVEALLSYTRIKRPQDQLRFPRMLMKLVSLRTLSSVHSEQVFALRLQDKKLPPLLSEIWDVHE

[6] = target: T1, Oxysterols receptor LXR-beta; assay type: functional, cell-based
[7] = Luminescence Cell-Based Dose Confirmation HTS to Identify Inhibitors of Polyadenylation.; assay type: functional
[8] = HepG2 cell cytotoxicity, dose response, cytotoxicity control for Shn3 inhibitor project, CellTiter-Glo, cherry-picked (AID 624134); assay type: functional, cell-based
[9] = target: T2, Disintegrin and metalloproteinase domain-containing protein 17 (Homo sapiens, UniProt P78536); assay: ADAM17 protease inhibitors, dose response, counter-screen for ADAM10 exosite inhibitor project, biochemical, quenched FRET substrate (AID 743253)
[10] = control 3'UTR Renilla luciferase suppression, dose response, counter-screen for Shn3 inhibitor project, cell-based, Clone20-Shn3RL, cherry-picked (AID 624133); assay type: functional
[11] = target: T2, Disintegrin and metalloproteinase domain-containing protein 17; assay: exosite inhibitors of ADAM17, dose response, biochemical (AID 743260)
[12] = Shn3 3'UTR reporter inhibitors, dose response, cell-based, Clone20 osteoblasts, firefly luciferase, cherry-picked (AID 624132); assay type: functional;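 note: firefly luciferase luminescence from reporter carrying the Shn3 3'UTR in osteoblasts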
[13] = ADAM10 protease inhibitors, dose response, selectivity assay for ADAM17 exosite inhibitor project, biochemical, FRET peptide substrate, recombinant human ADAM10 (AID 743259);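 note: ADAM10 enzyme cleaving a FRET peptide substrate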
[14] = P. falciparum Dd2 growth inhibitors, dose response, SYBR Green, cherry-picked samples (AID 1159567); assay type: functional, cell-based
[15] = HepG2 cell cytotoxicity, dose response, cytotoxicity control, cherry-picked samples (AID 1159577); assay type: functional, cell-based
[16] = M. tuberculosis H37Rv growth inhibitors, H37Rv strain (AID 1626); assay type: functional
[17] = inhibitors of intracellular T. cruzi replication, confirmation, NIH3T3 host cells, beta-gal luminescence (AID 2044); assay type: functional, cell-based;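 note: intracellular parasites grown in NIH/3T3 mouse fibroblasts as host cells; luminescent beta-galactosidase reporter signal from transgenic T. cruzi replicating inside host cells; inhibitors lower the luminescence signal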
[18] = cytotoxicity toward NIH3T3 fibroblasts, dose response, counter-screen, cell-based, ATP luminescence, mouse fibroblasts (AID 2010); assay type: functional;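 note: cells exposed to compound for about 90 hours before reading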
[19] = Luminescence-based cell-based high throughput dose response assay to identify activators of the DAF-12 from the parasite S. stercoralis (ssDAF-12).; assay type: functional
[20] = inhibitors of PGC1a acetylation in cells, dose response, cell-based, cherry-picked samples (AID 720514); assay type: functional;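 note: potency may reflect raised or lowered acetylation signal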
Prothrombin = Prothrombin (Homo sapiens, UniProt P00734); assay: Thrombin 1536 HTS Dose Response Confirmation. [Related pubchem assays: 1046 (Thrombin 1536 HTS; hits were confirmed in this assay)]; assay type: functional
Vero = assay: host cell cytotoxicity of antiviral hits, dose response, cytotoxicity control for West Nile virus antiviral project, secondary assay (AID 1650); assay type: functional; conditions: Chlorocebus sabaeus
INS1 = assay: beta cell apoptosis inhibitors, cytokine rescue, dose response, luminescence, retest (AID 449756); assay type: functional, cell-based; conditions: Rattus norvegicus;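 note: cell death triggered by IL-1 beta plus TNF-alpha plus IFN-gamma mixture; protective hits raise ATP signal compared with cytokine alone wells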

T2 sequence (P78536 whole entry, the tested form may be a part): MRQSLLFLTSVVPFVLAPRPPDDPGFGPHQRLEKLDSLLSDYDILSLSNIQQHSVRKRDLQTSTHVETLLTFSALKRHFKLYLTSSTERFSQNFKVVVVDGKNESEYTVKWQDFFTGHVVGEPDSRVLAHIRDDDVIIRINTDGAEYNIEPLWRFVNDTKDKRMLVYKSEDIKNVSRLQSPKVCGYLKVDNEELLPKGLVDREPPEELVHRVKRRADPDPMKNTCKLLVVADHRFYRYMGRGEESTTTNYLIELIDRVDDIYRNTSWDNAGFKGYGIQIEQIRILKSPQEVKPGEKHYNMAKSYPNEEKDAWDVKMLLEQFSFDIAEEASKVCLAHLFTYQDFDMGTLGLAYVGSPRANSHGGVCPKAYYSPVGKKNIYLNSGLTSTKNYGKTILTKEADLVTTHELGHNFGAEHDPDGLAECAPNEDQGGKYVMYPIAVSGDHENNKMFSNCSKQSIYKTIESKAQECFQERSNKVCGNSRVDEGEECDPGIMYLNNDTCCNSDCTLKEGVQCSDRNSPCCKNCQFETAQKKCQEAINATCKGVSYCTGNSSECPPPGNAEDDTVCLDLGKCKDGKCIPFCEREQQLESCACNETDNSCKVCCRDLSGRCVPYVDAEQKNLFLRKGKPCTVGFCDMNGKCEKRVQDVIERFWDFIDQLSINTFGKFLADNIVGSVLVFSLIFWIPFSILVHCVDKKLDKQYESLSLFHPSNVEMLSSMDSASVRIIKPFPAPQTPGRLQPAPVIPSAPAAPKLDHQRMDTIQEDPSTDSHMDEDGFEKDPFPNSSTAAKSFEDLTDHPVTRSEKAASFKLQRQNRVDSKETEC
Protein-tyrosine kinase 2-beta, sequence (Q14289 whole entry): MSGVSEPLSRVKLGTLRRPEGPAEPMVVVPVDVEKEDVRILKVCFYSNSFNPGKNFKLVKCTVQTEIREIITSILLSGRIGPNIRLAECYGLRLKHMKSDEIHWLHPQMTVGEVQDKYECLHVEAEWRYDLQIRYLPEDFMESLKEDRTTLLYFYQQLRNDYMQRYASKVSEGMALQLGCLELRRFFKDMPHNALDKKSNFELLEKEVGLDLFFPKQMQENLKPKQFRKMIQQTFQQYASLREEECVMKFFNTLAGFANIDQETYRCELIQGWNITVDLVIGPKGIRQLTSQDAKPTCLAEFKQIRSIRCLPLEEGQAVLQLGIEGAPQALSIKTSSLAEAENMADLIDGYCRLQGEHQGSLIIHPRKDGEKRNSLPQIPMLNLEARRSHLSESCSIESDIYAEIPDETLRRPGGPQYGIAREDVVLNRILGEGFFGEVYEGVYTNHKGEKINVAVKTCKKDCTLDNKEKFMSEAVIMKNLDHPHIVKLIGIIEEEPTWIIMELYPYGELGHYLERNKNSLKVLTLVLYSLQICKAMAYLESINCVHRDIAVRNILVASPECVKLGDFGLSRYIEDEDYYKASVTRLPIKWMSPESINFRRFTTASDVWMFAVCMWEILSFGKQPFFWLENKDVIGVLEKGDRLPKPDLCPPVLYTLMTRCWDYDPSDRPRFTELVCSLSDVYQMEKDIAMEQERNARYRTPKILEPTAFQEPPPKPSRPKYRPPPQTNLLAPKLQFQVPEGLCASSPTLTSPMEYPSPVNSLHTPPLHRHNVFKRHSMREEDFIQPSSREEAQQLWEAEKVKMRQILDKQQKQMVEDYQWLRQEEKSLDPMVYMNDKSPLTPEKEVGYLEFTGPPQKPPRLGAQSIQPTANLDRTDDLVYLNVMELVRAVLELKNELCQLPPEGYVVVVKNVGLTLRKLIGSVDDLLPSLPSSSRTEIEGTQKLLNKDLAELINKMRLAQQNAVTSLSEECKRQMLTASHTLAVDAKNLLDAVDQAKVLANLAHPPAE
Ephrin type-A receptor 4, sequence (Q03137 whole entry): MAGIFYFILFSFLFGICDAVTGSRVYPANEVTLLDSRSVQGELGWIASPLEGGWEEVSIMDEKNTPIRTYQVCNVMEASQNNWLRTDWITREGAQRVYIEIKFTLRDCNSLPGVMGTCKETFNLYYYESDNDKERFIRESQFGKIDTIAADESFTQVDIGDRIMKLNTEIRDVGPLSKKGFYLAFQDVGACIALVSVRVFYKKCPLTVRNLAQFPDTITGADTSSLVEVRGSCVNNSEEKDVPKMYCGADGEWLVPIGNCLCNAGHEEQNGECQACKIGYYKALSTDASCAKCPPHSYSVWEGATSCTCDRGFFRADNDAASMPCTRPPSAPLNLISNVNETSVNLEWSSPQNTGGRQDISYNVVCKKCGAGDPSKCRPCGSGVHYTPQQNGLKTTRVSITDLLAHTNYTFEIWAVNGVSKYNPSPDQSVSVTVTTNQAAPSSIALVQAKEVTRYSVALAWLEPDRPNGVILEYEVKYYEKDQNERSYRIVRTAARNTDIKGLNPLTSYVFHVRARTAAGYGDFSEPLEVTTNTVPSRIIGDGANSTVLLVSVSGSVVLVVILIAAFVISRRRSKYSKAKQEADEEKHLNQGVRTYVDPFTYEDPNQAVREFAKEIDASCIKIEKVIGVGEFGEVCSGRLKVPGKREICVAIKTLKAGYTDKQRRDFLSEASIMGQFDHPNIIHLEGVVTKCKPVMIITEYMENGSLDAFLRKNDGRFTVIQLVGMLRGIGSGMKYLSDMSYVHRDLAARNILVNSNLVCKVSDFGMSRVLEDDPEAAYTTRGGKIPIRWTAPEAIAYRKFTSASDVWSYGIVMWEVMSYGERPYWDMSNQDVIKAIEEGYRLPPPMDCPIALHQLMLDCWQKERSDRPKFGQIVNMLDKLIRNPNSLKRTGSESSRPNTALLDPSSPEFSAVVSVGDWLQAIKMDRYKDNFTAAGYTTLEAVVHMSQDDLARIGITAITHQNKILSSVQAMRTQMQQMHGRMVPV

SMILES: COCCN(Cc1ccccc1)P(=O)(O)c1ccccc1OCC(=O)O
- IC50 [1]: 7.64 µM (active)

SMILES: Oc1nc2ccccc2n1C1CCN(C(c2ccccc2OC(F)(F)F)c2nnnn2-c2ccc3c(c2)OCCO3)CC1 (stereo not drawn)
- AC50 [2]: 37.1 µM (active)
- IC50 [3]: > 69.5 µM (inactive)

SMILES: CCOC(=O)C1=C(C)N=c2s/c(=C/c3ccco3)c(=O)n2C1c1cccc(OC)c1 (stereo not drawn)
- IC50 (Ephrin type-A receptor 4): > 100 µM (not active)
- CC50 [4]: > 40 µM (active)

SMILES: NC(=NOC(=O)c1ccccc1Cl)c1ccccc1
- EC50 [5]: > 67.6 µM (inactive)
- EC50 [6]: > 67.6 µM (inactive)

SMILES: COC(=O)c1cc(C(=O)N2CCN(c3cccc(C)c3C)CC2)cc([N+](=O)[O-])c1
- EC50 [7]: > 120 µM (not active)

SMILES: C=CCC[C@H](Cc1ccc(F)cc1)C(=O)OC[C@H](Cc1c[nH]c2ccccc12)NC(=O)[C@@H](CC=C)CC(=O)N[C@H](CO)Cc1ccccc1
- AC50 [8]: 17 µM (active)
- IC50 [9]: > 69.5 µM (inactive)
- AC50 [10]: 15.8 µM (active)
- IC50 [11]: > 69.5 µM (inactive)
- AC50 [12]: 4.44 µM (active)
- IC50 [3]: > 69.5 µM (inactive)
- IC50 [13]: 58.9 µM (inactive)

SMILES: O=S(=O)(c1ccc(-c2ccccc2)cc1)N1C[C@@H]2N[C@H](C1)[C@@H]2c1ccc(-c2ccccc2)cc1
- AC50 [14]: 2.86 µM (active)
- AC50 [15]: 16 µM (active)

SMILES: CC(=O)Nc1ccc(Nc2cc(C)nc3c(-c4ccccc4)c(C)nn23)cc1
- IC50 [16]: > 100 µM (active)

SMILES: CCCn1c(SCC(=O)N2c3ccccc3Sc3ccccc32)nc2ccccc21
- EC50 [17]: 2.9 µM (active)
- IC50 [11]: > 69.5 µM (inactive)
- EC50 [18]: > 60 µM (not active)
- IC50 [13]: 19.7 µM (inactive)

SMILES: N=C(NOC(=O)c1ccccc1Cl)c1ccccc1
- EC50 (cells): > 67.6 µM (inactive)
- IC50 [19]: > 67.6 µM (inactive)

SMILES: O=C(/C=C/c1ccc(N2CCCCC2)c([N+](=O)[O-])c1)c1ccc(O)cc1
- AC50 [20]: 28.1 µM (active)

SMILES: CSc1nc(-c2ccccc2)nn1C(=O)c1ccco1
- IC50 (Prothrombin): 0.3 µM (active)

SMILES: Cn1c(=O)[nH]c(=O)c2c1nc(N1CCN(C(c3ccccc3)c3ccccc3)CC1)n2CCO
- CC50 (Vero): 14.5 µM (active)
- AC50 (INS1): 6.24 µM (active)
